We go through two molecules from PMC4159345, “PF-4708671 Activates AMPK Independently of p70S6K1 Inhibition” (PLoS ONE, 2014).

Each structure is given as a SMILES string.

Assay [1] deals with T1, mitochondrial respiratory chain Complex I.
T1 construct: gene Mtnd1; multi-subunit complex in mitochondria isolated from MEF
The assay can be described thus: spectrophotometric NADH-CoQ reductase activity in isolated MEF mitochondria, single concentration of […]. It is filed as biochemical, Mus musculus.

Assay [2] has as its target T1, mitochondrial respiratory chain Complex I. Put plainly: spectrophotometric rotenone-sensitive NADH-CoQ reductase activity in isolated MEF mitochondria. The class given is biochemical, Mus musculus.

Turning to `CN(C)C(=N)N=C(N)N` [metformin], the “spectrophotometric NADH-CoQ reductase activity in isolated MEF mitochondria, sin” value in assay [1] is 5 mM.

The term IC50 denotes the midpoint of a concentration-inhibition curve. Read a high IC50 as weaker potency. For the molecule `CCc1cncnc1N1CCN(Cc2nc3cc(C(F)(F)F)ccc3[nH]2)CC1` [PF-4708671], the IC50 in assay [2] was determined as 5.2 µM.
